This passage reports Cell survival and GI50 results from ChEMBL document CHEMBL1135835, “Biological activity of the tryprostatins and their diastereomers on human carcinoma cell lines” (2002).

A value given as a limit tells only on which side of the number the result lay.

Common to all, as to format: functional
Assay [1] has as its system PC-3. Put plainly: Growth inhibitory activity against PC-3 (human prostate) cancer cell line at 100 uM dose.
The test system of assay [2] is NCI-H520. Put plainly: Growth inhibitory activity against H520 (human lung) cancer cell line at 100 uM dose.
The subject of assay [3] is PC-3. Put plainly: Growth inhibitory activity against PC-3 (human prostate) cancer cell line at 10 uM dose.
Assay [4] deals with NCI-H520. Put plainly: Growth inhibitory activity against H520 (human lung) cancer cell line at 10 uM dose.
Assay [5] relates to MCF7. Put plainly: Growth inhibitory activity against MCF-7 (human breast) cancer cell line at 10 uM dose.
Assay [6] concerns MCF7. Put plainly: Growth inhibitory activity against MCF-7 (human breast) cancer cell line at 100 uM dose.
Assay [7] deals with MCF7. Put plainly: Gowth inhibitory activity against MCF-7 (human lbreast) cancer cell line.
The test system of a further assay is NCI-H522. Put plainly: Growth inhibitory activity against NCI-H522 (human lung) cancer cell line.
Assay [8] deals with PC-3. Put plainly: Growth inhibitory activity against PC-3 (human prostate) cancer cell line.

For `CC(C)=CCc1[nH]c2ccccc2c1C[C@H]1NC(=O)[C@H]2CCCN2C1=O`, the Cell survival is 78.9% in the assay on PC-3 [1]; 99.8% in the assay on NCI-H520 [2]; 95.8% in the assay on PC-3 [3]; more than 100% in the assay with NCI-H520 [4]; more than 100% in the assay with MCF7 [5]; more than 100% in the assay with MCF7 [6].

As to `CC(C)=CCc1[nH]c2ccccc2c1C[C@H]1NC(=O)[C@@H]2CCCN2C1=O`, the Cell survival with PC-3 [1] is 68.5%; with NCI-H520 [2], 76.5%; in the assay on PC-3 [3] it was 97.3%; in the assay with NCI-H520 [4], more than 100%; in the assay on MCF7 [5] it was more than 100%; in the assay with MCF7 [6], more than 100%.

The term GI50 denotes the concentration at which growth is held to half of that of the control. Lower therefore signals greater sensitivity of the cells. For the compound `CC(C)=CCc1[nH]c2ccccc2c1C[C@@H]1NC(=O)[C@H]2CCCN2C1=O`, the results for the 50% growth inhibitory concentration (GI50) in the assay with MCF7 [7], in the assay on NCI-H522 and in the assay with PC-3 [8] were 15.9 µM, 15.8 µM and 11.9 µM, respectively. Besides, the Cell survival in the assay on PC-3 [1] stood at 0.2%; with NCI-H520 [2] it was 0.1%; with PC-3 [3] it was 59.3%; in the assay with NCI-H520 [4] it was 88.3%; in the assay with MCF7 [5] it was 73.6%; with MCF7 [6], 0%.

On to `COc1ccc2c(C[C@H]3NC(=O)[C@H]4CCCN4C3=O)c(CC=C(C)C)[nH]c2c1`, for which the Cell survival is on record as 83.7% in the assay on PC-3 [1]; 75.2% in the assay with NCI-H520 [2]; more than 100% with PC-3 [3]; 81.7% with NCI-H520 [4]; more than 100% in the assay on MCF7 [5]; more than 100% with MCF7 [6].

For `COc1ccc2c(C[C@@H]3NC(=O)[C@H]4CCCN4C3=O)c(CC=C(C)C)[nH]c2c1`, the Cell survival in the assay on PC-3 [1] was more than 100%; in the assay with NCI-H520 [2], 98.5%; in the assay on PC-3 [3], more than 100%; with NCI-H520 [4], 99.3%; in the assay with MCF7 [5], more than 100%; in the assay on MCF7 [6], 99%.

With `COc1ccc2c(C[C@H]3NC(=O)[C@@H]4CCCN4C3=O)c(CC=C(C)C)[nH]c2c1`, the Cell survival with PC-3 [1], in the assay on NCI-H520 [2], in the assay with PC-3 [3], in the assay with NCI-H520 [4], in the assay with MCF7 [5] and with MCF7 [6] was more than 100% each time.

On to `COc1ccc2c(C[C@@H]3NC(=O)[C@@H]4CCCN4C3=O)c(CC=C(C)C)[nH]c2c1` [TRYPROSTATIN A], for which the Cell survival is 95.6% in the assay on PC-3 [1]; 79.4% with NCI-H520 [2]; 99.2% with PC-3 [3]; 80.1% with NCI-H520 [4]; more than 100% in the assay on MCF7 [5]; 95% with MCF7 [6].

For the compound `CC(C)=CCc1[nH]c2ccccc2c1C[C@@H]1NC(=O)[C@@H]2CCCN2C1=O` [TRYPROSTATIN B], the Cell survival is 68.9% in the assay on PC-3 [1]; 60.5% in the assay on NCI-H520 [2]; 95.5% with PC-3 [3]; 77.6% in the assay on NCI-H520 [4]; 88.2% in the assay on MCF7 [5]; 66.7% in the assay with MCF7 [6].
